Test results published in PubChem BioAssay AID1963436 (Molecular Pharmacology Branch, DTP, NCI, 2024).
Values joined by “and” are separate entries in the source; they are usually repeats but may differ in a detail not shown here. Equal values may be shown once.

System: OVCAR-5 complex spheroid (HUVEC/MSC), viability % T/C
Test: Anticancer human tumor OVCAR-5 cell line growth inhibition [Asc];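 further: spheroids exposed to agents for 7 days before readout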;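 on viability, T/C: 100% = DMSO vehicle-treated wells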
Conditions: for viability, T/C: stronger effect = lower value
Method: Multicellular complex tumor spheroid response to apoptosis pathway targeting inhibitors Alrizomadlin, Pelcitoclax, and Dasminapant in combination with a variety of drugs and investigational agents in selected tumor cell lines
The MDM2 inhibitor alrizomadlin, the Bcl-2/Bcl-xL inhibitor pelcitoclax, and the IAPs inhibitor dasminapant were evaluated both individually and in combination with standard of care and investigational anticancer small molecules within a complex spheroid model of solid tumors. . Complex spheroids include a stromal component modeled by human endothelial cells (HUVEC) and fibroblasts modeled by human mesenchymal stem cells (MSCs). The concentration ranges selected for each drug and investigational agent were based upon clinically achievable concentrations if the clinical Cmax of the agent was known.
Compounds. The drugs and investigational agents: alrizomadlin (APG-115; NSC831270), pelcitoclax (APG-1252; NSC835773), dasminapant (APG-1387;NSC834197), TAK-243 (NSC785004), copanlisib (NSC809693), olaparib (NSC753686), talazoparib (NSC767125), cobimetinib (NSC 768068), eltanexor (KPT-8602, NSC 794443), abemaciclib (NSC 768073), sotorasib (NSC818433), adagrasib (NSC 831453), MRTX-1133 (NSC 836407), Iadademestat (ORY1001, NSC 806812), and RMC-4630 (NSC839698), were obtained from the NCI Developmental Therapeutics Program Chemical Repository. The FDA-approved anticancer drug set is available from the Developmental Therapeutics Program at https://dtp.cancer.gov/organization/dscb/obtaining/available plates.htm. […] The stock solutions were prepared in dimethyl sulfoxide (DMSO, Sigma-Aldrich, St. Louis, MO, cat. D2650) at 800-fold the tested concentration and stored at -70 degrees C prior to their use. All drugs and investigational agents were tested over a range starting from a high concentration at or near the clinical Cmax and decreasing in half-log increments. If the clinical Cmax for an agent had not been determined, the highest concentration tested was 10 microM.
The patient-derived cancer (PDC) cell lines include five colon adenocarcinomas: 186277-243-T-J2-PDC, 616215-338-R-J1-PDC, 439559-082-T-J2-PDC, 463943-066-T-J2-PDC, and 519858-162-T-J1-PDC; three pancreatic carcinomas: 323965-272-R-J2-PDC, 521955-158-R6-J3-PDC, and 521955-158-R2-J5-PDC; two uterine sarcomas: 327498-152-R-J2-PDC and 993429-296-R-J1-PDC; two rhabdomyosarcomas: 755483-174-R-J1-PDC and 772245-204-R-J1-PDC; two soft tissue sarcomas: 126254-015-R-J1-PDC and 494315-158-R-J1-PDC; two malignant fibrous histiocytomas: 317291-083-R-J1-PDC and 596521-263-R-J1-PDC; two breast carcinomas: 171881-019-R-J1-PDC and 885512-296-R-J2-PDC; and one ovarian carcinoma: 6556581-035-R-J-PDC were obtained from the NCI PDMR, (https://pdmr.cancer.gov). The established cell lines HSSY-2 synovial sarcoma (RRID:CVCL 8719), SYO-1 synovial sarcoma (RRID:CVCL_7146), MPNST malignant peripheral neural sheath tumor were obtained from the Sloan Kettering Institute. The following established cell lines were purchased from the American Type Culture Collection (ATCC, Manassas, VA), Sor the received from the NCI repository:, PANC-1 pancreatic carcinoma (CRL-1469, RRID:CVCL_0480), OVCAR-5 ovarian carcinoma (RRID:CVCL_1628), OVCAR-8 ovarian carcinoma (RRID:CVCL_1629), , MCF-7 breast carcinoma (CRL-12584, RRID:CVCL_0031), MDA-MB-231 breast carcinoma (CRL-12532, RRID:CVCL_0062), NCI-H1876 small cell lung carcinoma (CRL-5902, RRID:CVCL_1503), NCI-H510A small cell lung carcinoma (HTB-184, RRID:CVCL_1565), NCI-H1417 (CRL-5869, RRID:CVCL_1469), and NCI-H196 small cell lung carcinoma (CRL-5823, RRID:CVCL_1509). Dr. Peter Houghton (Greehey Children's Cancer Research Institute, University of Texas Health Science Center, San Antonio, TX) provided Rh-18 rhabdomyosarcoma (RRID:CVCL_1659). Pooled donor human umbilical vein endothelial cells (HUVEC, Lonza, cat. CC-2519) and human mesenchymal stem cells (hMSC, Lonza, cat. PT-2501) were purchased from Lonza (Walkersville, MD).
Cell Culture. […]

Work on `C=CC(=O)N1CCN(c2nc(=O)n(-c3c(C)ccnc3C(C)C)c3nc(-c4c(O)cccc4F)c(F)cc23)C(C)C1` (centres undefined) + CCN1C(C(=O)NC23CCC(C(=O)O)(CC2)CC3)C(c2cccc(Cl)c2F)C2(C(=O)Nc3cc(Cl)ccc32)C12CCCCC2 yielded an IC50 (curve of first compound, second compound 0.03 µM) of over 10 µM, an IC50 (curve of first compound, second compound 0.0949 µM) of over 10 µM and an IC50 (curve of first compound, second compound 0.3 µM) of over 10 µM. It also gave an IC50 (curve of first compound, second compound 0.949 µM) of over 10 µM, an IC50 (curve of first compound, second compound 3 µM) of over 10 µM and a viability, T/C (second compound 0.03 µM, first compound 0.0316 µM) of 112%. For the same compound, the viability, T/C (second compound 0.03 µM, first compound 0.1 µM) was 111%, the viability, T/C (second compound 0.03 µM, first compound 0.316 µM) was 120% and the viability, T/C (second compound 0.03 µM, first compound 1 µM) was 125%. The viability, T/C (second compound 0.03 µM, first compound 3.16 µM) was 113%, the viability, T/C (second compound 0.03 µM, first compound 10 µM) was 104% and the viability, T/C (second compound 0.0949 µM, first compound 0.0316 µM) was 110%. For the same compound, the viability, T/C (second compound 0.0949 µM, first compound 0.1 µM) was 111%, the viability, T/C (second compound 0.0949 µM, first compound 0.316 µM) was 106% and the viability, T/C (second compound 0.0949 µM, first compound 1 µM) was 112%. For the same compound, the viability, T/C (second compound 0.0949 µM, first compound 3.16 µM) was 116%, the viability, T/C (second compound 0.0949 µM, first compound 10 µM) was 92.1% and the viability, T/C (second compound 0.3 µM, first compound 0.0316 µM) was 105%. It also gave a viability, T/C (second compound 0.3 µM, first compound 0.1 µM) of 119%, a viability, T/C (second compound 0.3 µM, first compound 0.316 µM) of 112% and a viability, T/C (second compound 0.3 µM, first compound 1 µM) of 121%. It also gave a viability, T/C (second compound 0.3 µM, first compound 3.16 µM) of 118%, a viability, T/C (second compound 0.3 µM, first compound 10 µM) of 116% and a viability, T/C (second compound 0.949 µM, first compound 0.0316 µM) of 109%. It also gave a viability, T/C (second compound 0.949 µM, first compound 0.1 µM) of 118%, a viability, T/C (second compound 0.949 µM, first compound 0.316 µM) of 102% and a viability, T/C (second compound 0.949 µM, first compound 1 µM) of 103%. The viability, T/C (second compound 0.949 µM, first compound 3.16 µM) was 109%, the viability, T/C (second compound 0.949 µM, first compound 10 µM) was 106% and the viability, T/C (second compound 3 µM, first compound 0.0316 µM) was 116%. The viability, T/C (second compound 3 µM, first compound 0.1 µM) was 118%, the viability, T/C (second compound 3 µM, first compound 0.316 µM) was 122% and the viability, T/C (second compound 3 µM, first compound 1 µM) was 111%. For the same compound, the viability, T/C (second compound 3 µM, first compound 3.16 µM) was 111% and the viability, T/C (second compound 3 µM, first compound 10 µM) was 111%.
With `Cn1ncnc1[C@H]1c2n[nH]c(=O)c3cc(F)cc(c23)N[C@@H]1c1ccc(F)cc1` the viability, T/C (compound 0.000316 µM) was 104% and 94.5% and 106%, the viability, T/C (compound 0.001 µM) was 108% (2×) and 101% and the viability, T/C (compound 0.00316 µM) was 99.5% and 95.4% and 93.1%. The viability, T/C (compound 0.01 µM) was 90.6% and 93.5% and 96.7%, the viability, T/C (compound 0.0316 µM) was 92.8% and 92.5% and 90.8% and the viability, T/C (compound 0.1 µM) was 91.8% and 88.3% and 93.8%. It also gave an IC50 (curve of compound) of over 0.1 µM.
With `O=C(c1cc(Cc2n[nH]c(=O)c3ccccc23)ccc1F)N1CCN(C(=O)C2CC2)CC1` the viability, T/C (compound 0.0316 µM) was 106% and 108% and 101%, the viability, T/C (compound 0.1 µM) was 98.9% and 98.3% and 106% and the viability, T/C (compound 0.316 µM) was 92.3% and 94.9% and 95%. The viability, T/C (compound 1 µM) was 96% and 91.9% and 93.1%, the viability, T/C (compound 3.16 µM) was 93.5% and 97.9% and 94.9% and the viability, T/C (compound 10 µM) was 76.2% and 81% and 83.6%. It also gave an IC50 (curve of compound) of over 10 µM.
